Assay [1] relates to platelet aggregation. As to the kind of experiment: platelet aggregation inhibiting activity of prior 11-deoxy-7S-prostaglandins E1 (inventors' investigations). Type of assay: cell-based.
Assay [2] has as its system blood pressure and heart beat rate of rats. As to the kind of experiment: hypotensive activity and heart beat rate, intravenous injection in anesthetized rats. It counts as in vivo, male wister rats. As to conditions: Rattus norvegicus, i.v.; for ED (10% increase of heart rate): read-out: H-ED10 (dosage causing a 10% increase of the heart rate); for ED (20% lowering of blood pressure): read-out: P-ED20 (dosage causing a 20% lowering of the mean blood pressure). How it is done:
(1) The actions of the thiaprostaglandin E1 derivatives of the invention on the blood pressure and heart beat rate of rats were examined by intravenous injection under anesthesia. Male wister rats weighing about 250 g were used. Urethane (500 mg/kg) and α-chloralose (100 mg/kg) were intraperitoneally administered to the rats. The rats were anesthetized and fixed in place. Each of the test compounds was dissolved in a small amount of ethanol and diluted with physiological saline to adjust the final ethanol concentration to not more than 5%. The solution was intravenously injected into the rats through a catheter inserted into the femoral vein. The blood pressure of the rats was measured by a pressure transducer through a catheter inserted into the carotid artery of the rats. The heart beat rate was determined from the blood pressure pulse. The action of the test compound of the blood pressure was expressed as the dosage (p-ED20, μg/kg) of the test compound which caused a 20% lowering of the mean blood pressure before administration of the compound. The action of the test compound on the heart rate was expressed as the dosage (H-ED10, μg/kg) of the test compound which caused a 10% increase of the heart rate from the heart beat rate before administration of the test compound.

The test system of assay [3] is platelet aggregation. The assay is described as follows: extra vivo inhibitory activity of platelet aggregation after oral administration. Type of assay: in vivo, guinea pigs (Hartley strain). As to conditions: Cavia porcellus; for inhibition at 3 mg/kg: 3 mg/kg p.o.; for inhibition at 10 mg/kg: 10 mg/kg p.o. The protocol:
The extra vivo platelet aggregation inhibitory activity of the 7-thiaprostaglandin E1 derivatives of the invention were measured by using guinea pigs. A test drug prepared as a 30% ethanol solution of each of the compounds of the invention in ethanol diluted with physiological saline and as a control 30% ethanol solution were orally adminstered in a dose of 1 ml/kg to Hartleystrain guinea pigs having a body weight of 350 to 450 g which had been fasted for 17 hours. 1 hour or 4 hours after the administration of the compound, blood was drawn off by the cardiac puncture using trisodium citrate so that the ratio of the blood to 3.8% trisodium citrate was 9:1. The blood was centrifuged at a speed of 700 rpm for 10 minutes. The upper layer was separated as plateletrich plasma (PRP). The lower layer was further centrifuged at a speed of 2800 rpm for 10 minutes. The upper layer was separated as platelet poor plasma (PPP). 250 microliters of the resulting PRP was taken into an aggregometer cuvette, and incubated at 37° C. for 2 minutes. Then, 25 microliters of a […] ADP disodium solution adjusted by dissolving with 0.1M tris-HCl buffer (ph 8.0) was added. The aggregation curve was recorded for 3 minutes. The maximum degree of aggregation of platelets within this time period was read, and the rate of inhibitor of platelet aggregation was calculated from the following equation. [formula] TC : the transmittance of a control group (to which only the 30% ethanol solution was administered),
TD : the transmittance of a drug administered group.

Assay [4] relates to blood pressure of DOCA hypertensive rats. As to the kind of experiment: action on blood pressure of conscious DOCA hypertensive rats, oral. It counts as in vivo, male wistar rats. How it is done:
(3) The compound (No. 138) of the invention was orally adminstered to DOCA hypertensive rats (induced by deoxycholticosteron acetate) in conscious, and its action on the blood pressure was examined.
Male wistar rats weighing about 160 g were rendered hypertensive. Specifically, one kidney was removed from the rats, and DOCA was subcutaneously administered to the rats in a dose of 10 mg/kg twice a week. While the rats were allowed to drink a 1% aqueous solution of sodium chloride, they were kept for more than 4 weeks to induce hypertension. The average blood pressure was measured in the same way as described in (2) above.

The subject of assay [5] is blood pressure of conscious rats. The assay is described as follows: action on blood pressure of conscious rats, oral. It counts as in vivo, male wister rats. The protocol:
(2) The thiaprostaglandin E1 derivatives of the invention were orally administered to conscious rats, and their action on the blood pressure was examined.
Male wister rats weighing about 250 g were used as experimental animals. These rat had been fasted for 16 hours before the start of the experiment. A catheter was inserted into the femoral artery of the rats under ether anesthesia, and then the rats were restrained within a Bollman cage. After more than 1 hour from awakening, each of the test compounds was orally administered.
The test compound was dissolved in a small amount of ethanol, and then diluted with water to adjust the final concentration of ethanol to not more than 5%. The mean blood pressure was measured by means of a pressure transducer through the catheter inserted into the femoral artery.

The subject of assay [6] is platelet aggregation. As to the kind of experiment: in vitro inhibitory activity of platelet aggregation (ADP). It counts as cell-based, rabbit (Japanese domestic white male). To be noted: Oryctolagus cuniculus, rabbit PRP, 10 μM ADP, 37° C., read-out: IC50 (minimum concentration which inhibited more than 50% of platelet aggregation). The protocol: The in vitro platelet aggregation imhibiting activity of the compounds of the invention were examined by using rabbits. Blood was withdrawn from the ear vein of Japanese domestic white male rabbits weighing 2.5 to 3.5 kg. A mixture of a 3.8% trisodium citrate solution and the blood in a ratio of 1:9 was centrifuged at a speed of 1000 rpm for 10 minutes. The upper layer was separated as platelet-rich plasma (PRP). The lower layer was further centrifuged at a speed of 2800 rpm for 10 minutes. The upper layer was separated as platelet-poor plasma (PPP). The number of platelets was adjusted to 6×10^5 /μl to 7×10^5 /μl by diluting the PRP with PPP. 25 microliters of the test compounds prepared as shown below was added in an amount of 25 to 250 microliters of PRP after the adjustment, and the mixture was pre-incubated at 37° C. for 2 minutes, and then 10 μM (final) of ADP was added. By using an aggregometer, changes in transmission were recorded.
The drug was dissolved in ethanol to a concentration of 10 mg/ml, and successively diluted with phosphate buffer (pH 7.4) prior to use.
The rate of inhibition of platelet aggregation was determined from the following equation. [formula] To : the transmittance of the system containing the phosphate buffer, T: the transmittance of the sytem to which the test drug was added.
The minimum concentration of the drug which inhibited more than 50% of platelet aggregation was shown as an IC50 value.

In assay [7] the test system is ethanol ulcer (stomach). The assay is described as follows: ethanol ulcer test (anti-ulcer action). Type of assay: in vivo, SD-strain rats. How it is done:
An ethanol ulcer test was carried out by the following processure.
SD-strain rats (body weight 200 to 220 g; 7 weeks old) were fasted for 24 hours, and a solution of each of the test compounds in physiological saline buffered with phosphate buffer at pH 7.5 was orally administered. Thirty minutes after the administration, 75% ethanol was orally administered in a dose of 1 ml/kg. One hour later, the abdomen was incised to isolate the stomach. […] The total of these lengths was defined as the ulcer index. A control group was given physiological saline buffered with phosphate buffer (pH 7.5) and 75% ethanol.

Setting [8] is: Rattus norvegicus, po, 100 μg/kg p.o., read-out: Ulcer inhibiting rate (%).

The structures appear in SMILES notation. Values after ≈ are worked out from the molar mass of the structure shown. Bounds are passed on as bounds.

We go through seven molecules from US4466980A, “Thiaprostaglandin E1 derivatives, process for production thereof, and pharmaceutical use thereof” (Teijin Limited, priority 1980, dated 1984).

For the molecule `CCCC(C)C[C@H](O)/C=C/[C@H]1CCC(=O)[C@@H]1SCCCCCC(=O)OC` (stereo partly shown), the “platelet aggregation inhibiting activity (in words)” value in assay [1] is recorded as “very weak”.

As for `CCCCC[C@H](O)/C=C/[C@H]1CCC(=O)[C@@H]1SCCCCCC(=O)OC`, the “platelet aggregation inhibiting activity (in words)” value in assay [1] is recorded as “very weak”.

In the case of `CCCCC[C@H](O)/C=C/[C@H]1CCC(=O)[C@@H]1SCCCCCC(=O)O` [11-deoxy-7S-prostaglandin E1], the “platelet aggregation inhibiting activity (in words)” value in assay [1] was “very weak”.

Consider `CCCC(C)C[C@H](O)/C=C/[C@H]1CCC(=O)[C@@H]1SCCCCCC(=O)O` (stereo partly drawn) [11-deoxy-17-methyl-7S-prostaglandin E1], for which the “platelet aggregation inhibiting activity (in words)” value in assay [1] is “very weak”.

Take `COC(=O)CCCCCS[C@H]1C(=O)C[C@@H](O)[C@@H]1/C=C/[C@@H](O)C1CCCCC1` [Compound 138, 16,17,18,19,20-pentanor-15-cyclohexyl-7-thiaprostaglandin E1 methyl ester]: in assay [2], the ED (10% increase of heart rate) was more than 10 µg/kg. Besides, the ED (20% lowering of blood pressure) in assay [2] worked out at 0.68 µg/kg. Also, the figures for the inhibition at 3 mg/kg in assay [3] (1 hr) and in assay [3] (4 hr) were 64.9% and 23.3%, respectively. Also, the inhibition at 10 mg/kg came out at 94.1% in assay [3] (1 hr) and 50% in assay [3] (4 hr). Further, the average blood pressure in assay [4] (0.1 mg/kg p.o., 0 min) came to 167 ± 8; in assay [4] (0.1 mg/kg p.o., 10 min), 149 ± 12; in assay [4] (0.1 mg/kg p.o., 15 min), 156 ± 8; in assay [4] (0.1 mg/kg p.o., 30 min) it was 165 ± 7; in assay [4] (0.1 mg/kg p.o., 45 min), 168 ± 7; in assay [4] (0.1 mg/kg p.o., 60 min) it was 171 ± 10. For the same molecule, the average blood pressure in assay [4] (0.1 mg/kg p.o., 90 min) worked out at 177 ± 11; in assay [4] (0.1 mg/kg p.o., 120 min), 182 ± 13; in assay [4] (0.3 mg/kg p.o., 0 min) it was 165 ± 14; in assay [4] (0.3 mg/kg p.o., 10 min), 134 ± 12; in assay [4] (0.3 mg/kg p.o., 15 min), 141 ± 8; in assay [4] (0.3 mg/kg p.o., 30 min) it was 151 ± 7. Also, the average blood pressure in assay [4] (0.3 mg/kg p.o., 45 min) is 161 ± 9; in assay [4] (0.3 mg/kg p.o., 60 min) it was 169 ± 9; in assay [4] (0.3 mg/kg p.o., 90 min) it was 170 ± 12; in assay [4] (0.3 mg/kg p.o., 120 min) it was 180 ± 10. The “hypotensive action (in words)” value is “marked hypotensive action” in assay [4] (p.o., hypertensive rats) and “long-lasting hypotensive action” in assay [5] (p.o., especially 10 mg/kg). Further, the mean blood pressure in assay [5] (1 mg/kg p.o., 0 min, in mmHg) is recorded as 116 + 4; in assay [5] (1 mg/kg p.o., 10 min) it was 99 ± 6; in assay [5] (1 mg/kg p.o., 15 min), 114 ± 2; in assay [5] (1 mg/kg p.o., 30 min), 116 ± 4; in assay [5] (1 mg/kg p.o., 45 min) it was 119 ± 4; in assay [5] (1 mg/kg p.o., 60 min) it was 120 ± 4. Also, the mean blood pressure in assay [5] (1 mg/kg p.o., 90 min) was found to be 118 ± 3; in assay [5] (1 mg/kg p.o., 120 min), 118 ± 3; in assay [5] (10 mg/kg p.o., 0 min), 118 ± 3; in assay [5] (10 mg/kg p.o., 10 min), 92 ± 9; in assay [5] (10 mg/kg p.o., 15 min), 95 ± 9; in assay [5] (10 mg/kg p.o., 30 min), 108 ± 6. The mean blood pressure in assay [5] (10 mg/kg p.o., 45 min) is 111 ± 4; in assay [5] (10 mg/kg p.o., 60 min), 112 ± 3; in assay [5] (10 mg/kg p.o., 90 min) it was 114 ± 4; in assay [5] (10 mg/kg p.o., 120 min) it was 117 ± 4.

Consider `O=C(O)CCSCCC[C@H]1C(=O)C[C@@H](O)[C@@H]1/C=C/[C@@H](O)C1CCCCC1` [Compound 403, 16,17,18,19,20-pentanor-15-cyclohexyl-4-thiaprostaglandin E1], for which the IC50 in assay [6] is 2.8 µg/mL (≈ 7.28 µM). In addition, the “Ulcer index (mm)” value in assay [7] (100 μg/kg p.o., ** P < 0.01) amounted to 6.0 ± 3.8 mm. In assay [7] (setting [8]), the inhibition at 0.1 mg/kg stood at 91.2%. Also, the “antiulcer action (in words)” value in assay [7] (p.o., Table 6) is reported as “nearly the same antiulcer action as prostaglandin E1”.

For `CCCCC[C@H](O)/C=C/[C@H]1[C@H](O)CC(=O)[C@@H]1CCCCCCC(=O)O` [PGE1, prostaglandin E1], in assay [2], the ED (10% increase of heart rate) is more than 10 µg/kg and the ED (20% lowering of blood pressure) came to 1.21 µg/kg. In assay [3] (1 hr), this molecule yielded an inhibition at 3 mg/kg of 0% and an inhibition at 10 mg/kg of 0%. Moreover, in assay [3] (4 hr), the inhibition at 3 mg/kg was determined as 25.9% and the inhibition at 10 mg/kg turned out to be 16.9%. Also, the “Ulcer index (mm)” value in assay [7] (30 μg/kg p.o.) was 26.8 ± 12.5 mm. Moreover, the “Ulcer index (mm)” value in assay [7] (100 μg/kg p.o., ** P < 0.01) is recorded as 1.0 ± 1.0 mm. In addition, the inhibition at 0.03 mg/kg in assay [7] (Rattus norvegicus, po, 30 μg/kg p.o., read-out: Ulcer inhibiting rate (%)) came out at 60.8%. Also, in assay [7] (setting [8]), the inhibition at 0.1 mg/kg is 98.5%.
